Experimental data reported in ChEMBL document CHEMBL5385886, “Design, synthesis and evaluation of nitric oxide releasing derivatives of 2,4-diaminopyrimidine as novel FAK inhibitors for intervention of metastatic triple-negative breast cancer” (Eur J Med Chem, 2023).
Calls of active or inactive are those of the source. No cut-off for these calls is given here.

What was measured:
MDA-MB-231 [1] = assay: Antiproliferative activity against human MDA-MB-231 cells assessed as inhibition of cell proliferation at 5 uM incubated for 72 hrs by MTT assay relative to control; format: functional
MDA-MB-157 = assay: Antiproliferative activity against human MDA-MB-157 cells assessed as inhibition of cell proliferation incubated for 72 hrs by MTT assay; format: functional, cell-based; settings: MDA-MB-157, 72 h
MDA-MB-231 [2] = assay: Antiproliferative activity against human MDA-MB-231 cells assessed as inhibition of cell proliferation incubated for 72 hrs by MTT assay; format: functional, cell-based; settings: MDA-MB-231, 72 h
MDA-MB-453 = assay: Antiproliferative activity against human MDA-MB-453 cells assessed as inhibition of cell proliferation incubated for 72 hrs by MTT assay; format: functional, cell-based; settings: MDA-MB-453, 72 h
Focal adhesion kinase 1 = Focal adhesion kinase 1 (Homo sapiens, UniProt Q05397); assay: Inhibition of FAK (unknown origin)
Chain of Focal adhesion kinase 1 (Q05397 whole entry): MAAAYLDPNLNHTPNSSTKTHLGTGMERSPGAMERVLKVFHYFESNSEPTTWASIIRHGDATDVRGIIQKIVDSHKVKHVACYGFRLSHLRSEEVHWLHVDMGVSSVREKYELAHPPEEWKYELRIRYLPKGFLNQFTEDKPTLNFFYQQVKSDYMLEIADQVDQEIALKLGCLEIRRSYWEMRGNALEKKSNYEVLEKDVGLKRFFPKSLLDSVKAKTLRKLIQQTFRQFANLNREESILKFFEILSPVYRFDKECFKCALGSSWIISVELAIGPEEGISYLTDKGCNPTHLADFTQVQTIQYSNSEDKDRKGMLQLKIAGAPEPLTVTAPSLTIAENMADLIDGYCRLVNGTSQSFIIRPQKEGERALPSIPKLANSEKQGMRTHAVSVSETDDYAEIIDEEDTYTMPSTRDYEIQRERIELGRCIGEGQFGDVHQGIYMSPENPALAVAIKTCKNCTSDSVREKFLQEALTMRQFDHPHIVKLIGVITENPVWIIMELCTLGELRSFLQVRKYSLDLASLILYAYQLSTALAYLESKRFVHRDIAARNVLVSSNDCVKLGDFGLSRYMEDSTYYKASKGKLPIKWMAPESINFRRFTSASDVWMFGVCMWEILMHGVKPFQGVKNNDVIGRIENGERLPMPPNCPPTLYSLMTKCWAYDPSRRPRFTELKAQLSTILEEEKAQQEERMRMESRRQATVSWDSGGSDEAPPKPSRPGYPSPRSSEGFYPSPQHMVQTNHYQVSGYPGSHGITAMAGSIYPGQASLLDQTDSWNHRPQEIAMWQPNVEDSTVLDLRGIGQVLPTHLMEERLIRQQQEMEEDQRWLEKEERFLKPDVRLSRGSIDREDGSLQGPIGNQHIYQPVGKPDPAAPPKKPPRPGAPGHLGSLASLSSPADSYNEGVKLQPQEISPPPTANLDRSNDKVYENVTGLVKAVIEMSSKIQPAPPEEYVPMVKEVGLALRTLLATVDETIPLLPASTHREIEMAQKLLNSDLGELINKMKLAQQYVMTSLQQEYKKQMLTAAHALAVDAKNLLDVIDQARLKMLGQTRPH

MDA-MB-231 [3] = assay: Induction of NO production in human MDA-MB-231 cells at 4 uM incubated for 72 hrs by DAF-FM-DA dye based flow cytometry analysis; format: functional, cell-based
[4] = Cytotoxicity against human MCF-10A cells assessed as inhibition of cell proliferation incubated for 72 hrs by MTT assay; format: toxicity, cell-based
MDA-MB-231 [5] = assay: Induction of apoptosis in human MDA-MB-231 cells assessed as live cells at 4 uM incubated for 72 hrs by Annexin V-FITC/PI staining based flow cytometry analysis (reference value: 97.51%); format: functional
MDA-MB-231 [6] = assay: Induction of apoptosis in human MDA-MB-231 cells assessed as early apoptotic cells at 4 uM incubated for 72 hrs by Annexin V-FITC/PI staining based flow cytometry analysis (reference value: 2.16%); format: functional
MDA-MB-231 [7] = assay: Induction of apoptosis in human MDA-MB-231 cells assessed as late apoptotic cells at 4 uM incubated for 72 hrs by Annexin V-FITC/PI staining based flow cytometry analysis (reference value: 0.11%); format: functional
MDA-MB-231 [8] = assay: Induction of apoptosis in human MDA-MB-231 cells assessed as dead cells at 4 uM incubated for 72 hrs by Annexin V-FITC/PI staining based flow cytometry analysis (reference value: 0.23%); format: functional

IC50 (Focal adhesion kinase 1) [nM] | SMILES | inhibition at 5 µM (MDA-MB-231 [1]) [%] | IC50 (MDA-MB-157) [nM] | IC50 (MDA-MB-231 [2]) [nM] | IC50 (MDA-MB-453) [nM] | Activity (MDA-MB-231 [3]) | IC50 at 72 h [4] [nM] | Activity (MDA-MB-231 [5]) [%] | Activity (MDA-MB-231 [6]) [%] | Activity (MDA-MB-231 [7]) [%] | Activity (MDA-MB-231 [8]) [%]
66 | CNC(=O)c1ccccc1Nc1nc(Nc2ccc(CC(=O)OCC(C)COc3no[n+]([O-])c3S(=O)(=O)c3ccccc3)cc2)ncc1Cl (centres undefined) | > 92 | 275 | 225 | 255 | Active | – | – | – | – | –
– | CNC(=O)c1ccccc1Nc1nc(Nc2ccc(N3CCOCC3)cc2OC)ncc1Cl | – | 912 | 1170 | 1220 | – | 6470 | 57.79 | 40.78 | 1.31 | 0.11
